# According to ChEMBL document CHEMBL4837183, “Antiproliferative Bufadienolides from the Bulbs of Drimia altissima” (2021):
# Assays:
# Format in all cases: functional
# T47D = test: Growth inhibition of human T47D cells measured after 48 hrs by SRB assay
# MDA-MB-231 = test: Growth inhibition of human MDA-MB-231 cells measured after 48 hrs by SRB assay
# IGROV-1 = test: Growth inhibition of human IGROV-1 cells measured after 48 hrs by SRB assay
# SF-268 = test: Growth inhibition of human SF-268 cells measured after 48 hrs by SRB assay
# NCI-H460 = test: Growth inhibition of human NCI-H460 cells measured after 48 hrs by SRB assay
# NCI-H226 = test: Growth inhibition of human NCI-H226 cells measured after 48 hrs by SRB assay
# HOP-62 = test: Growth inhibition of human HOP-62 cells measured after 48 hrs by SRB assay
# MDA-MB-468 = test: Growth inhibition of human MDA-MB-468 cells measured after 48 hrs by SRB assay
# SNB-75 = test: Growth inhibition of human SNB-75 cells measured after 48 hrs by SRB assay
# MOLT-4 = test: Growth inhibition of human MOLT-4 cells measured after 48 hrs by SRB assay
# TK-10 = test: Growth inhibition of human TK-10 cells measured after 48 hrs by SRB assay
# M14 = test: Growth inhibition of human M14 cells measured after 48 hrs by SRB assay
# KM12 = test: Growth inhibition of human KM12 cells measured after 48 hrs by SRB assay
# HOP-92 = test: Growth inhibition of human HOP-92 cells measured after 48 hrs by SRB assay
# UACC-257 = test: Growth inhibition of human UACC-257 cells measured after 48 hrs by SRB assay
# SNB-19 = test: Growth inhibition of human SNB-19 cells measured after 48 hrs by SRB assay
# NCI/ADR-RES = test: Growth inhibition of human NCI/ADR-RES cells measured after 48 hrs by SRB assay
# OVCAR-5 = test: Growth inhibition of human OVCAR-5 cells measured after 48 hrs by SRB assay
# K562 = test: Growth inhibition of human K562 cells measured after 48 hrs by SRB assay
# Hs-578T = test: Growth inhibition of human Hs-578T cells measured after 48 hrs by SRB assay
# NCI-H322M = test: Growth inhibition of human NCI-H322M cells measured after 48 hrs by SRB assay
# NCI-H23 = test: Growth inhibition of human NCI-H23 cells measured after 48 hrs by SRB assay
# HCT-116 = test: Growth inhibition of human HCT-116 cells measured after 48 hrs by SRB assay
# HL-60 = test: Growth inhibition of human HL-60 cells measured after 48 hrs by SRB assay
# UO-31 = test: Growth inhibition of human UO-31 cells measured after 48 hrs by SRB assay
# HCT-15 = test: Growth inhibition of human HCT-15 cells measured after 48 hrs by SRB assay
# OVCAR-3 = test: Growth inhibition of human OVCAR-3 cells measured after 48 hrs by SRB assay
# SK-MEL-2 = test: Growth inhibition of human SK-MEL-2 cells measured after 48 hrs by SRB assay
# PC-3 = test: Growth inhibition of human PC-3 cells measured after 48 hrs by SRB assay
# MDA-MB-435 = test: Growth inhibition of human MDA-MB-435 cells measured after 48 hrs by SRB assay
# SK-OV-3 = test: Growth inhibition of human SK-OV-3 cells measured after 48 hrs by SRB assay
# COLO 205 = test: Growth inhibition of human COLO 205 cells measured after 48 hrs by SRB assay
# CAKI-1 = test: Growth inhibition of human CAKI-1 cells measured after 48 hrs by SRB assay
# SN12C = test: Growth inhibition of human SN12C cells measured after 48 hrs by SRB assay
# SK-MEL-5 = test: Growth inhibition of human SK-MEL-5 cells measured after 48 hrs by SRB assay
# RPMI-8226 = test: Growth inhibition of human RPMI-8226 cells measured after 48 hrs by SRB assay
# NCI-H522 = test: Growth inhibition of human NCI-H522 cells measured after 48 hrs by SRB assay
# CCRF-CEM = test: Growth inhibition of human CCRF-CEM cells measured after 48 hrs by SRB assay
# DU-145 = test: Growth inhibition of human DU-145 cells measured after 48 hrs by SRB assay
# Malme-3M = test: Growth inhibition of human Malme-3M cells measured after 48 hrs by SRB assay
# SK-MEL-28 = test: Growth inhibition of human SK-MEL-28 cells measured after 48 hrs by SRB assay
# SF-539 = test: Growth inhibition of human SF-539 cells measured after 48 hrs by SRB assay
# SW-620 = test: Growth inhibition of human SW-620 cells measured after 48 hrs by SRB assay
# SF-295 = test: Growth inhibition of human SF-295 cells measured after 48 hrs by SRB assay
# ACHN = test: Growth inhibition of human ACHN cells measured after 48 hrs by SRB assay
# A549 = test: Growth inhibition of human A549 cells measured after 48 hrs by SRB assay
# LOX IMVI = test: Growth inhibition of human LOX IMVI cells measured after 48 hrs by SRB assay
# A498 = test: Growth inhibition of human A498 cells measured after 48 hrs by SRB assay
# HCC 2998 = test: Growth inhibition of human HCC 2998 cells measured after 48 hrs by SRB assay
# BT-549 = test: Growth inhibition of human BT-549 cells measured after 48 hrs by SRB assay
# MCF7 = test: Growth inhibition of human MCF7 cells measured after 48 hrs by SRB assay
# UACC-62 = test: Growth inhibition of human UACC-62 cells measured after 48 hrs by SRB assay
# SR = test: Growth inhibition of human SR cells measured after 48 hrs by SRB assay
# OVCAR-8 = test: Growth inhibition of human OVCAR-8 cells measured after 48 hrs by SRB assay
# RXF 393 = test: Growth inhibition of human RXF 393 cells measured after 48 hrs by SRB assay
# 786-0 = test: Growth inhibition of human 786-0 cells measured after 48 hrs by SRB assay
smiles,measurement,setting,value
CCO[C@H]1C=C2CC[C@@H]3[C@H]([C@@H](O)C[C@]4(C)[C@@H](c5ccc(=O)oc5)CC[C@]34O)[C@@]2(C)CC1,GI50,T47D,2170 nM
same,GI50,MDA-MB-231,> 5750 nM
same,GI50,IGROV-1,1840 nM
same,GI50,SF-268,471 nM
same,GI50,NCI-H460,247 nM
same,GI50,NCI-H226,1770 nM
same,GI50,HOP-62,974 nM
same,GI50,MDA-MB-468,> 550 nM
same,GI50,SNB-75,1060 nM
same,GI50,MOLT-4,189 nM
same,GI50,TK-10,1300 nM
same,GI50,M14,1930 nM
same,GI50,KM12,2200 nM
same,GI50,HOP-92,757 nM
same,GI50,UACC-257,1890 nM
same,GI50,SNB-19,2350 nM
same,GI50,NCI/ADR-RES,1610 nM
same,GI50,OVCAR-5,2030 nM
same,GI50,K562,1270 nM
same,GI50,Hs-578T,369 nM
same,GI50,NCI-H322M,1400 nM
same,GI50,NCI-H23,1360 nM
same,GI50,HCT-116,716 nM
same,GI50,HL-60,649 nM
same,GI50,UO-31,940 nM
same,GI50,HCT-15,1800 nM
same,GI50,OVCAR-3,618 nM
same,GI50,SK-MEL-2,1200 nM
same,GI50,PC-3,839 nM
same,GI50,MDA-MB-435,1400 nM
same,GI50,SK-OV-3,1910 nM
same,GI50,COLO 205,4220 nM
same,GI50,CAKI-1,1150 nM
same,GI50,SN12C,905 nM
same,GI50,SK-MEL-5,1360 nM
same,GI50,RPMI-8226,1450 nM
same,GI50,NCI-H522,252 nM
same,GI50,CCRF-CEM,233 nM
same,GI50,DU-145,423 nM
same,GI50,Malme-3M,1800 nM
same,GI50,SK-MEL-28,1660 nM
same,GI50,SF-539,968 nM
same,GI50,SW-620,911 nM
same,GI50,SF-295,1200 nM
same,GI50,ACHN,251 nM
same,GI50,A549,434 nM
same,GI50,LOX IMVI,1800 nM
same,GI50,A498,460 nM
same,GI50,HCC 2998,4510 nM
same,GI50,BT-549,946 nM
same,GI50,MCF7,1520 nM
same,GI50,UACC-62,1270 nM
same,GI50,SR,418 nM
same,GI50,OVCAR-8,1670 nM
same,GI50,RXF 393,709 nM
same,GI50,786-0,927 nM
C[C@]12CC[C@@H](O)C=C1CC[C@@H]1[C@@H]2[C@@H](O)C[C@]2(C)[C@@H](c3ccc(=O)oc3)CC[C@]12O,GI50,T47D,4710 nM
same,GI50,MDA-MB-231,8500 nM
same,GI50,IGROV-1,3690 nM
same,GI50,SF-268,656 nM
same,GI50,NCI-H460,573 nM
same,GI50,NCI-H226,7560 nM
same,GI50,HOP-62,1550 nM
same,GI50,MDA-MB-468,10200 nM
same,GI50,SNB-75,2170 nM
same,GI50,MOLT-4,303 nM
same,GI50,TK-10,2980 nM
same,GI50,M14,3380 nM
same,GI50,KM12,5000 nM
same,GI50,HOP-92,2100 nM
same,GI50,UACC-257,3450 nM
same,GI50,SNB-19,4970 nM
same,GI50,NCI/ADR-RES,2230 nM
same,GI50,OVCAR-5,2840 nM
same,GI50,K562,644 nM
same,GI50,Hs-578T,831 nM
same,GI50,NCI-H322M,2880 nM
same,GI50,NCI-H23,2230 nM
same,GI50,HCT-116,532 nM
same,GI50,HL-60,273 nM
same,GI50,UO-31,2150 nM
same,GI50,HCT-15,4110 nM
same,GI50,OVCAR-3,739 nM
same,GI50,SK-MEL-2,3060 nM
same,GI50,PC-3,1880 nM
same,GI50,MDA-MB-435,3350 nM
same,GI50,SK-OV-3,4240 nM
same,GI50,COLO 205,6050 nM
same,GI50,CAKI-1,2470 nM
same,GI50,SN12C,1070 nM
same,GI50,SK-MEL-5,3030 nM
same,GI50,RPMI-8226,2540 nM
same,GI50,NCI-H522,639 nM
same,GI50,CCRF-CEM,502 nM
same,GI50,DU-145,760 nM
same,GI50,Malme-3M,4350 nM
same,GI50,SK-MEL-28,3470 nM
same,GI50,SF-539,1490 nM
same,GI50,SW-620,1690 nM
same,GI50,SF-295,1750 nM
same,GI50,ACHN,475 nM
same,GI50,A549,649 nM
same,GI50,LOX IMVI,3690 nM
same,GI50,A498,1770 nM
same,GI50,HCC 2998,7850 nM
same,GI50,BT-549,658 nM
same,GI50,MCF7,3530 nM
same,GI50,UACC-62,3310 nM
same,GI50,SR,189 nM
same,GI50,OVCAR-8,2110 nM
same,GI50,RXF 393,412 nM
same,GI50,786-0,998 nM
